Tests used:
Format in all cases: functional, cell-based
[1] = molecular target: T1, ATP-dependent translocase ABCB1 (Homo sapiens, UniProt P08183); assay: TP_TRANSPORTER: inhibition of Rhodamine 123 efflux (R123: 10 uM, C6-GalCer: 20 uM) in 2780AD cells
[2] = molecular target: T1, ATP-dependent translocase ABCB1; assay: TP_TRANSPORTER: inhibition of Rhodamine 123 efflux (R123: 10 uM, C6-GlcCer: 20 uM) in 2780AD cells
[3] = molecular target: T1, ATP-dependent translocase ABCB1; assay: TP_TRANSPORTER: inhibition of Rhodamine 123 efflux (R123: 10 uM, C6-LacCer: 20 uM) in 2780AD cells
[4] = molecular target: T1, ATP-dependent translocase ABCB1; assay: TP_TRANSPORTER: inhibition of Rhodamine 123 efflux (R123: 10 uM, C6-SM: 10 uM) in 2780AD cells

T1 sequence (P08183 whole entry): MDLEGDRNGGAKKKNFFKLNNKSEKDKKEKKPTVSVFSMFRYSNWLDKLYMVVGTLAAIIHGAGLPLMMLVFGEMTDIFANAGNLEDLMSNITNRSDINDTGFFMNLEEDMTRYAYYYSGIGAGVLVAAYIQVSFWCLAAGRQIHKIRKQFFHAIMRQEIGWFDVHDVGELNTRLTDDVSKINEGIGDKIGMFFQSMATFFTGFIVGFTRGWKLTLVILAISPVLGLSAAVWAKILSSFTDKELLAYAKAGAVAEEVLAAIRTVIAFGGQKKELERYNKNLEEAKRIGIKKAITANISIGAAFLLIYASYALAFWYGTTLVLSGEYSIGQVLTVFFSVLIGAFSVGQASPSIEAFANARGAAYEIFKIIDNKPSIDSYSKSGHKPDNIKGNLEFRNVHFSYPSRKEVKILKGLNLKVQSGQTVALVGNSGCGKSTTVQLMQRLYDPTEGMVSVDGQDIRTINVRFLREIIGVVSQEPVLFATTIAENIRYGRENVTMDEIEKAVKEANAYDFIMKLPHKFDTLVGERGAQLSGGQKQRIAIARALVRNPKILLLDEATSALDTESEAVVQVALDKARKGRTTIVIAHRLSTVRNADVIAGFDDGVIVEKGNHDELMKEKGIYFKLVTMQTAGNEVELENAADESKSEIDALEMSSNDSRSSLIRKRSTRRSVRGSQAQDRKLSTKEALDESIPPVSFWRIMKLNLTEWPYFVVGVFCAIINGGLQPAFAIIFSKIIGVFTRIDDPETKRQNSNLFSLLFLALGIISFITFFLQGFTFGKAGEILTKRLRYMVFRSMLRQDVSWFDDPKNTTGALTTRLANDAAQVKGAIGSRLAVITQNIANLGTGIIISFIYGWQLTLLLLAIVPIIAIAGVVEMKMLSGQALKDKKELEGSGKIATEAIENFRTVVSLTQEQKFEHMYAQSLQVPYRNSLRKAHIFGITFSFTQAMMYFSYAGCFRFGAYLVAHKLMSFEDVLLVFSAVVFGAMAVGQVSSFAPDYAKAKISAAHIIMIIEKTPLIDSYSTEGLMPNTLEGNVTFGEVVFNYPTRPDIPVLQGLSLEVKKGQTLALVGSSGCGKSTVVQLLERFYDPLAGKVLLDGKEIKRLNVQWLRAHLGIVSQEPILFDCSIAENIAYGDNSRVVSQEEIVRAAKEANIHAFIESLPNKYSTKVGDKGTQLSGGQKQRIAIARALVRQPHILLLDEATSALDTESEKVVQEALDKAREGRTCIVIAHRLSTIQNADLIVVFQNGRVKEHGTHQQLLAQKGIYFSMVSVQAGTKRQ

CCCCCCCCCCCCC/C=C/[C@@H](O)[C@H](CO[C@@H]1O[C@H](CC)[C@H](O)[C@H](O)[C@H]1O)NC(=O)CCCCCC
Activity [1]: inhibitor [+]

CCCCCCCCCCCCC/C=C/[C@@H](O)[C@H](CO[C@@H]1O[C@H](CC)[C@@H](O)[C@H](O)[C@H]1O)NC(=O)CCCCCC
Activity [2]: inhibitor [+]

CCCCCCCCCCCCC/C=C/[C@@H](O)[C@H](CO[C@@H]1O[C@H](CC)[C@@H](O[C@@H]2O[C@H](CO)[C@@H](O)[C@H](O)[C@H]2O)[C@H](O)[C@H]1O)NC(=O)CCCCCC
Activity [3]: inhibitor [+]

CCCCCCCCCCCCCCCC(O)C(CO)NC(=O)CCCCCC (centres undefined)
Activity [4]: inhibitor [+]

From ChEMBL document CHEMBL2074108, “Inhibition of P-glycoprotein activity and chemosensitization of multidrug-resistant ovarian carcinoma 2780AD cells by hexanoylglucosylceramide” (Biochem Biophys Res Commun, 1999)
